Data reported in US8344010B2, “Fused imidazole derivatives as TRPV3 antagonist” (Glenmark Pharmaceuticals S.A., priority 2008, dated 2013).
pIC50: −log10 of the molar value.

Biological target: T1, Human TRPV3 (Homo sapiens, UniProt Q8NET8)
T1 construct: expressed in transfected cells; host or cells: CHO cells (selected with G-418)
T1 sequence (Q8NET8 1-790): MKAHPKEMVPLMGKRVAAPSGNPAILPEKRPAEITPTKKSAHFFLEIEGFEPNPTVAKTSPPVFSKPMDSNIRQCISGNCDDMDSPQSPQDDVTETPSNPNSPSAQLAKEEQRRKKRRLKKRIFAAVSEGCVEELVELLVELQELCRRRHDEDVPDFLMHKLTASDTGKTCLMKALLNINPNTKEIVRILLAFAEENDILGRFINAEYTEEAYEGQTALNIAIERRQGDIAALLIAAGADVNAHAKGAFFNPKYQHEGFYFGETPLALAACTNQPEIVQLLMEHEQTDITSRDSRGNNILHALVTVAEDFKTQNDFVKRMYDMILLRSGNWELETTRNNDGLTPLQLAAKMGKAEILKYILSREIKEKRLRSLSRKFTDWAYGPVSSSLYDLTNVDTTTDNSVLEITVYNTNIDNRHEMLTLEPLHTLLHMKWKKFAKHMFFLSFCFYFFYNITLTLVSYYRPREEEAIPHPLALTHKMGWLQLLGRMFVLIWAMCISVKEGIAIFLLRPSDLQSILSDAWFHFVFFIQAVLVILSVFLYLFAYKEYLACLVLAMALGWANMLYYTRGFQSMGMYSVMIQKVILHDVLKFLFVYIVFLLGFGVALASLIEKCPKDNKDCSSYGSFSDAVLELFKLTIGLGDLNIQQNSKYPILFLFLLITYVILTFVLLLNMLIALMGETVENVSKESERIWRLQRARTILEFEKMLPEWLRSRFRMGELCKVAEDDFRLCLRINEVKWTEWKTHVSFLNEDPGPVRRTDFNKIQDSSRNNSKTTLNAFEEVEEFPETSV
Assay: 45Calcium uptake assay: inhibition of 2-APB induced cellular uptake of radioactive calcium
Format: cell-based
Conditions: human TRPV3 expressing CHO cells, 2-APB 500 μM; for inhibition at 1 µM: 1 μM test compound, read-out: Percentage Inhibition (1 μM); for inhibition at 10 µM: 10 μM test compound, read-out: Percentage Inhibition (10 μM); for pIC50: class symbol
Source text: The illustrative examples of the present invention are screened for TRPV3 activity according to a modified procedure described in Tóth, A., Kedei, N., Wang, Y. and Blumberg, P. M. Life Sciences (2003), 73, 487-498. The screening of the compounds can be carried out by other methods and procedures known to a person skilled in the art. Such screening methods may be found in (a) Hu, H.-Z. et al. J. Biol. Chem. (2004), 279, 35741-35747; (b) Smith, G. D. et al. Nature (2002), 418, 186-190; (c) Peier, A. M. et al. Science (2002), 296, 2046-2049.
Screening for TRPV3 antagonist using the ^45Calcium uptake assay The inhibition of TRPV3 receptor activation was followed as inhibition of 2-aminoethoxydiphenylborate (2-APB) induced cellular uptake of radioactive calcium. Test compounds were dissolved in dimethyl sulfoxide (DMSO) to prepare 20 mM stock solution and then diluted using plain medium with DMEM/F-12 containing 1.8 mM CaCl2 to get desired concentration. Final concentration of DMSO in the reaction was 0.5% (v/v). Human TRPV3 expressing CHO cells were grown in DMEM/F-12 medium with 10% FBS, 1% penicillin-streptomycin solution, 400 μg/ml of G-418. Cells were seeded 24 h prior to the assay in 96 well plates so as to get ˜50,000 cells per well on the day of experiment. Cells were treated with test compounds for 10 minutes followed by addition of 2-APB at a final concentration of 500 μM and 5 μCi/ml^45Ca^+2 for 4 minutes. Cells were washed and lysed using buffer containing 1% Triton X-100, 0.1% deoxycholate and 0.1% SDS. Radioactivity in the lysate was measured in Packardt Top count after addition of liquid scintillant. Concentration response curves were plotted as a % of maximal response obtained in the absence of test antagonist. IC50 value was calculated from concentration response curve by nonlinear regression analysis using GraphPad PRISM software.
Percentage inhibition at concentrations of 1.0 μM and 10.0 μM are given in the table along with IC50 details for selected examples.

COc1cccc(/C=C/c2nc3ccccc3n2-c2ncccc2C(F)(F)F)c1OC1CCCC1 [Example 24, 2-[(E)-2-(2-Cyclopentyloxy-3-methoxyphenyl)vinyl]-1-[3-(trifluoromethyl)pyridin-2-yl]-1H-benzimidazole]
inhibition at 1 µM: 84.7%
inhibition at 10 µM: 98%
pIC50: < 6.30

COc1cccc(/C=C/c2nc3ccccc3n2-c2ccc(C(F)(F)F)cn2)c1OC(C)C [Example 25, 2-[(E)-2-(2-Isopropoxy-3-methoxyphenyl)vinyl]-1-(5-trifluoromethylpyridin-2-yl)-1H-benzimidazole]
inhibition at 1 µM: 86.7%
inhibition at 10 µM: 97.5%
pIC50: 6.30 to 7.00

COc1cccc(/C=C/c2nc3ccccc3n2-c2ccc(C(F)(F)F)cn2)c1OCC1CC1 [Example 26]
inhibition at 1 µM: 70.6%
inhibition at 10 µM: 91.6%
pIC50: < 6.30

COc1cccc(/C=C/c2nc3ccccc3n2-c2ccc(C(F)(F)F)cn2)c1OC1CCCC1 [Example 27, 2-[(E)-2-(2-Cyclopentyloxy-3-methoxyphenyl)vinyl]-1-[5-(trifluoromethyl)pyridin-2-yl]-1H-benzimidazole]
inhibition at 1 µM: 41.8%
inhibition at 10 µM: 94.7%

COc1cccc(/C=C/c2nc3ccccc3n2-c2ccc(C(F)(F)F)cn2)c1OCc1ccccc1 [Example 28, 2-[(E)-2-(2-Benzyloxy-3-methoxyphenyl)vinyl]-1-[5-(trifluoromethyl)pyridin-2-yl]-1H-benzimidazole]
inhibition at 1 µM: 77.1%
inhibition at 10 µM: 92.6%
pIC50: 6.30 to 7.00

COc1cccc(/C=C/c2nc3ccccc3n2-c2ncc(C(F)(F)F)cc2Cl)c1OC1CCCC1 [Example 29, 1-[3-Chloro-5-(trifluoromethyl)pyridin-2-yl]-2-[(E)-2-(2-cyclopentyloxy-3-methoxyphenyl)vinyl]-1H-benzimidazole]
inhibition at 1 µM: 78.8%
inhibition at 10 µM: 93.6%
pIC50: 6.30 to 7.00

COC(=O)c1ccc(-n2c(/C=C/c3cccc(OC)c3OC3CCCC3)nc3ccccc32)nc1 [Example 30, Methyl 6-(2-{(E)-2-[2-(Cyclopentyloxy)-3-methoxyphenyl]vinyl}-1H-benzimidazol-1-yl)nicotinate]
inhibition at 1 µM: 16.4%
inhibition at 10 µM: 27.5%

COc1cccc(/C=C/c2nc3ccccc3n2-c2ccc(C)cc2)c1OCC1CC1 [Example 31, 2-[(E)-2-(2-Cyclopropylmethoxy-3-methoxyphenyl)vinyl]-1-(4-methylphenyl)-1H-benzimidazole]
inhibition at 1 µM: 47.3%
inhibition at 10 µM: 86.6%

COc1ccccc1-n1c(/C=C/c2cccc(OC)c2OC2CCCC2)nc2ccccc21 [Example 32, 2-[(E)-2-(2-Cyclopentyloxy-3-methoxyphenyl)vinyl]-1-(2-methoxyphenyl)-1H-benzimidazole]
inhibition at 1 µM: 9.07%
inhibition at 10 µM: 0%

COc1cccc(/C=C/c2nc3ccccc3n2-c2ccc(C#N)cc2)c1OCC1CC1 [Example 33, 4-{2-[(E)-2-(2-Cyclopropylmethoxy-3-methoxyphenyl)vinyl]-1H-benzimidazol-1-yl}benzonitrile]
inhibition at 1 µM: 78.2%
inhibition at 10 µM: 95.3%
pIC50: 6.30 to 7.00

COc1cccc(/C=C/c2nc3ccccc3n2-c2ccc(C#N)cc2)c1OCc1ccccc1 [Example 34, 4-{2-[(E)-2-(2-Benzyloxy-3-methoxyphenyl)vinyl]-1H-benzimidazol-1-yl}benzonitrile]
inhibition at 1 µM: 69.9%
inhibition at 10 µM: 86.8%
pIC50: < 6.30

COc1cccc(/C=C/c2nc3ccccc3n2-c2ccc(C(F)(F)F)cc2)c1OC1CCCC1 [Example 35, 2-[(E)-2-(2-Cyclopentyloxy-3-methoxyphenyl)vinyl]-1-[4-(trifluoromethyl)phenyl]-1H-benzimidazole]
inhibition at 1 µM: 54.3%
inhibition at 10 µM: 77.8%

CCCCOc1c(/C=C/c2nc3ccccc3n2-c2ccc(C#N)cc2)cccc1OC [Example 36, 4-{2-[(E)-2-(2-Butoxy-3-methoxyphenyl)vinyl]-1H-benzimidazol-1-yl}benzonitrile]
inhibition at 1 µM: 82.8%
inhibition at 10 µM: 96%
pIC50: 6.30 to 7.00

COc1cccc(/C=C/c2nc3ccccc3n2-c2ccc(C(F)(F)F)cc2)c1OCC1CC1 [Example 37, 2-[(E)-2-(2-Cyclopropylmethoxy-3-methoxyphenyl)vinyl]-1-[4-(trifluoromethyl)phenyl]-1H-benzimidazole]
inhibition at 1 µM: 72.2%
inhibition at 10 µM: 84.6%
pIC50: 6.30 to 7.00

COc1cccc(/C=C/c2nc3ccccc3n2-c2ccc(F)c(C#N)c2)c1OCC1CC1 [Example 38]
inhibition at 1 µM: 48.3%
inhibition at 10 µM: 59.2%

COc1cccc(/C=C/c2nc3ccccc3n2-c2ccc(C#N)cc2F)c1OCC1CC1 [Example 39, 4-{2-[(E)-2-(2-Cyclopropylmethoxy-3-methoxyphenyl)vinyl]-1H-benzimidazol-1-yl}-3-fluorobenzonitrile]
inhibition at 1 µM: 76.8%
inhibition at 10 µM: 94.2%
pIC50: 6.30 to 7.00

COc1cccc(/C=C/c2nc3ccccc3n2Cc2ccc(C(C)(C)C)cc2)c1OC1CCCC1 [Example 40, 2-[(E)-2-(2-Cyclopentyloxy-3-methoxyphenyl)vinyl]-1-(4-tert-butylbenzyl)-1H-benzimidazole]
inhibition at 1 µM: 11.7%
inhibition at 10 µM: 12.3%

COc1cccc(/C=C/c2nc3ccccc3n2Cc2ccc(F)cc2F)c1OCC1CC1 [Example 41, 1-(2,4-Difluorobenzyl)-2-[(E)-2-(2-cyclopropylmethoxy-3-methoxyphenyl)vinyl]-1H-benzimidazole]
inhibition at 1 µM: 57.7%
inhibition at 10 µM: 86.5%

COc1cccc(/C=C/c2nc3ccccc3n2Cc2ccc(C#N)cc2)c1OCC1CC1 [Example 42, 4-({2-[(E)-2-(2-Cyclopropylmethoxy-3-methoxyphenyl)vinyl]-1H-benzimidazol-1-yl}methyl)benzonitrile]
inhibition at 1 µM: 60.2%
inhibition at 10 µM: 87.3%

COc1cccc(/C=C/c2nc3ccccc3n2Cc2ccc(C#N)cc2)c1OC1CCCC1 [Example 43, 4-({2-[(E)-2-(2-Cyclopentyloxy-3-methoxyphenyl)vinyl]-1H-benzimidazol-1-yl}methyl)benzonitrile]
inhibition at 1 µM: 88.8%
inhibition at 10 µM: 97.5%
pIC50: 6.30 to 7.00

COc1cccc(/C=C/c2nc3ccccc3n2Cc2ccc(C#N)cc2)c1OCc1ccccc1F [Example 44, 4-({2-[(E)-2-(2-{2-Fluorobenzyloxy}-3-methoxyphenyl)vinyl]-1H-benzimidazol-1-yl}methyl)benzonitrile]
inhibition at 1 µM: 60%
inhibition at 10 µM: 87.1%

COc1cccc(/C=C/c2nc3ccccc3n2-c2cccs2)c1OCC1CC1 [Example 45, 2-[(E)-2-(2-Cylopropymethoxy-3-methoxyphenyl)]-1-(2-thienyl)-1H-benzimidazole]
inhibition at 1 µM: 43.4%
inhibition at 10 µM: 83.8%

COc1cccc(/C=C/c2nc3ccccc3n2-c2nccs2)c1OCC1CC1 [Example 46]
inhibition at 1 µM: 16.1%
inhibition at 10 µM: 81.1%

COc1cccc(/C=C/c2nc3ccccc3n2-c2nccs2)c1OC1CCCC1 [Example 47, 2-[(E)-2-(2-Cyclopentyloxy-3-methoxyphenyl)vinyl]-1-(1,3-thiazol-2-yl)-1H-benzimidazole]
inhibition at 1 µM: 22.4%
inhibition at 10 µM: 79.7%
